The record followed here is US20100273748A1, “ANTIMICROBIAL THERAPY” (priority 2006, published 2010).

One series deals with acetylated histone H4. Briefly: Histone H4 acetylation in keratinocytes (immunofluorescence, Western blot). The class given is cell-based, human. Conditions: HDACi in the presence of 1,25D3. The protocol: Panel a; Immunofluorescence staining of acetylated histone H4 protein in NHEK treated with HDACi in the presence or absence of 1,25D3. […] Panel b: Western blot of acetylated histone 4 from keratinocytes treated with the HDACi butyrate or TLR agonists. […] Bar=30 μM.
The abundance of acetylated histone was directly measured to confirm the inhibitory effects of butyrate and TSA on HDACs. […] To determine if changes in histone acetylation occur upon stimulation of keratinocytes with TLR ligands NHEK were stimulated with different TLR ligands and histone acetylation was assessed.
In general terms: A western blot detects proteins with antibodies after separation by electrophoresis.

The next series relates to CD14. Kind of series: qPCR of CD14 mRNA in cultured keratinocytes. Conditions: 24 hours. The class given is cell-based, human. How it is done:
Cell culture and stimuli. Human keratinocytes were grown in serum-free EpiLife® cell culture media (Cascade Biologics; Portland, Oreg.) containing 0.06 mM Ca2+ and 1× EpiLife® defined growth supplement (EDGS) at 37° C. under standard tissue culture conditions. Stock cultures were maintained for up to five passages in this media with the addition of 50 U/mL penicillin and 50 μg/mL streptomycin. HaCaT keratinocytes were cultured in DMEM (Sigma, St. Louis, Mo.) with 10% FCS. Cells at 50-70% confluence were stimulated in fresh medium after preincubation with 1,25(OH)2 vitamin D3 (1,25D3; 0.1-100 nM, 4-24 h; Sigma). Alternatively, NHEK were stimulated in the presence of 1,25D3 (0.1-100 nM). Stimuli included TLR2,6 ligands Malp-2 (0.001-0.5 μg/ml; Alexis Biochemicals, Carlsbad, Calif.), FSL-1 (1-2 μg/ml, Invivogen, San Diego, Calif.) and zymosan (50 μg/ml; Invivogen), as well as flagellin (50 ng/ml; Alexis), LPS (1 μg/ml; Sigma), lipoteichoic acid (LTA; 10 μg/ml; Sigma), 19 kDA lipopeptide (10 μg/ml, a kind gift from S. Krutzik, Division of Dermatology, UCLA), CpG DNA (10 μg/ml; Sigma), Ca2+ (1.7 mM), LPS (1 μg/ml; Sigma), TNFα (20 ng/ml; Chemicon Temecula, Calif.) and TGFβ1 (0.1-1 μg/ml; R&D Systems, Minneapolis, Minn.). A TLR2 blocking antibody (αTLR2; clone TL2.1, 5 μg/ml, eBioscience, San Diego, Calif.) was utilized to investigate the role of TLR2 signaling. Furthermore, keratinocytes were pretreated with a vitamin D receptor antagonist (VDR-antagonist ZK159222 Schering AG; 10^-7M) or the CYP inhibitor itraconazole (ITRA; 10^-7M) before stimulation with TGFβ in the presence of 25OH vitamin D3 (25D3, 10 nM, Sigma).
Real-time RT-PCR (qPCR). RNA was extracted from cells, epidermal constructs or tissue using Trizol® and 1 μg RNA was reverse transcribed using iScript® (BioRad, Hercules, Calif.). Expression of cathelicidin and GAPDH was analysed by real-time RT-PCR. Predeveloped Taqman® assay probes (ABI, Foster City, Calif.) were used for the analyses of the expression of CYP24A1 (24-hydroxylase), CYP27B1 (1α-hydroxylase), CD14, CD36, TLR1, TLR2, TLR4, TLR6 and murine CD14. All analyses were performed in triplicate from 2-5 independent experiments in an ABI Prism® 7000 Sequence Detection System. Fold induction relative to the vehicle treated control in in vitro experiments was calculated using the comparative Ct method, where ΔΔCt is ΔCt(stimulant)-ΔCt(vehicle), ΔCt is Ct(gene)-Ct(GAPDH) and Ct is the cycle at which an arbitrary detection threshold is crossed. For quantification of transcript abundance in tissue samples target gene expression was normalized to GAPDH and compared to non-treated or non-injured skin.
For orientation: In qPCR the cycle at which signal appears reflects the starting amount.

The test system of series [1] is Other TLRs and the TLR coreceptor CD36. Briefly: qPCR of other TLRs and CD36 in cultured keratinocytes. The class given is cell-based. Conditions: cultured human keratinocytes exposed to 1,25D3. How it is done:
Cell culture and stimuli. Human keratinocytes were grown in serum-free EpiLife® cell culture media (Cascade Biologics; Portland, Oreg.) containing 0.06 mM Ca2+ and 1× EpiLife® defined growth supplement (EDGS) at 37° C. under standard tissue culture conditions. Stock cultures were maintained for up to five passages in this media with the addition of 50 U/mL penicillin and 50 μg/mL streptomycin. HaCaT keratinocytes were cultured in DMEM (Sigma, St. Louis, Mo.) with 10% FCS. Cells at 50-70% confluence were stimulated in fresh medium after preincubation with 1,25(OH)2 vitamin D3 (1,25D3; 0.1-100 nM, 4-24 h; Sigma). Alternatively, NHEK were stimulated in the presence of 1,25D3 (0.1-100 nM). […]
Real-time RT-PCR (qPCR). […] Expression of cathelicidin and GAPDH was analysed by real-time RT-PCR. […] Fold induction relative to the vehicle treated control in in vitro experiments was calculated using the comparative Ct method, where ΔΔCt is ΔCt(stimulant)-ΔCt(vehicle), ΔCt is Ct(gene)-Ct(GAPDH) and Ct is the cycle at which an arbitrary detection threshold is crossed. For quantification of transcript abundance in tissue samples target gene expression was normalized to GAPDH and compared to non-treated or non-injured skin.

Series [2] in a line: Topical treatment of healthy volunteers' skin, clinical and histological inflammation. Conditions: single topical application of 1,25D3. In kind it is in vivo, human. The protocol: (§1) Patients and treatments. Human skin wounds were collected following informed consent by inducing 5 mm full-thickness wounds in volunteers (n=5) under aseptic conditions with local anesthesia as described. At 24 hours after incision, 4 mm punch biopsies were taken from the site of injury and immediately fixed in formalin for immunostaining or frozen in liquid N2 for subsequent RNA isolation. Intact skin from healthy volunteers served as control (n=4). To examine the effects of topical 1,25D3, healthy skin of volunteers (n=7) was treated once topically with 1,25D3 (1.0 mM) and left under occlusion for 4 days. Vehicle treated contralateral skin served as a control. After treatment, skin biopsies were obtained from both sites, fixed in formalin 10% and embedded in paraffin for immunostaining. All treatments and sample acquisitions, including skin biopsies, were approved by the committees on investigations involving human subjects.

In another series the test system is cathelicidin. Briefly: Topical treatment of healthy volunteers' skin, cathelicidin expression. In kind it is in vivo, human. Conditions: topical 1,25D3. The protocol:
as §1
Immunostaining. […] Nuclei were detected with DAPI. After subsequent washings with PBS slides, were mounted in ProLong Anti-Fade reagent (Molecular Probes, Eugene, Oreg.) and evaluated with an Olympus BX41 microscope (Olympus, Melville, N.Y.). […]
NaOH, pH6.0). […] Sections were washed in PBS and detected with biotinylated secondary antibodies (Vector Laboratories, Burlingame, Calif.) and diaminobenzidine substrate (Sigma) per manufacturers' instructions.

On to `C=C1/C(=C\C=C2/CCC[C@]3(C)[C@@H]([C@H](C)CCCC(C)(C)O)CC[C@@H]23)C[C@@H](O)C[C@@H]1O` [1,25D3, 1,25(OH)2 vitamin D3], for which the “acetylation of histone H4” value with acetylated histone H4 is listed as “further increased”. Further, in the series with CD14 (1,25D3 100 nM, keratinocyte monolayers), the “CD14 mRNA expression” value is given as “increases expression”. The CD14 transcript abundance result in the series on CD14 (1,25D3 10^−8M) was “strongly upregulated”. Besides, the “expression of other TLRs and CD36” value in series [1] was “remained unchanged”. Also, the “clinical or histological evidence of inflammation” value in series [2] is “did not induce clinical or histological evidence of inflammation”. For the same compound, the “cathelicidin expression in skin” value in the series on cathelicidin is given as “increased expression”.
